Laboratory results published in patent US4762821A, “N',N"-dialkylguanidino dipeptides” (Syntex (U.S.A.) Inc., priority 1986, dated 1988).

Target: T1, ACE from crude rabbit lung acetone powder (Oryctolagus cuniculus, UniProt P12822)
T1 construct: a preparation of ACE from crude rabbit lung acetone powder; from tissue; host or cells: rabbit lung (crude acetone powder)
T1 sequence (P12822 34-1310): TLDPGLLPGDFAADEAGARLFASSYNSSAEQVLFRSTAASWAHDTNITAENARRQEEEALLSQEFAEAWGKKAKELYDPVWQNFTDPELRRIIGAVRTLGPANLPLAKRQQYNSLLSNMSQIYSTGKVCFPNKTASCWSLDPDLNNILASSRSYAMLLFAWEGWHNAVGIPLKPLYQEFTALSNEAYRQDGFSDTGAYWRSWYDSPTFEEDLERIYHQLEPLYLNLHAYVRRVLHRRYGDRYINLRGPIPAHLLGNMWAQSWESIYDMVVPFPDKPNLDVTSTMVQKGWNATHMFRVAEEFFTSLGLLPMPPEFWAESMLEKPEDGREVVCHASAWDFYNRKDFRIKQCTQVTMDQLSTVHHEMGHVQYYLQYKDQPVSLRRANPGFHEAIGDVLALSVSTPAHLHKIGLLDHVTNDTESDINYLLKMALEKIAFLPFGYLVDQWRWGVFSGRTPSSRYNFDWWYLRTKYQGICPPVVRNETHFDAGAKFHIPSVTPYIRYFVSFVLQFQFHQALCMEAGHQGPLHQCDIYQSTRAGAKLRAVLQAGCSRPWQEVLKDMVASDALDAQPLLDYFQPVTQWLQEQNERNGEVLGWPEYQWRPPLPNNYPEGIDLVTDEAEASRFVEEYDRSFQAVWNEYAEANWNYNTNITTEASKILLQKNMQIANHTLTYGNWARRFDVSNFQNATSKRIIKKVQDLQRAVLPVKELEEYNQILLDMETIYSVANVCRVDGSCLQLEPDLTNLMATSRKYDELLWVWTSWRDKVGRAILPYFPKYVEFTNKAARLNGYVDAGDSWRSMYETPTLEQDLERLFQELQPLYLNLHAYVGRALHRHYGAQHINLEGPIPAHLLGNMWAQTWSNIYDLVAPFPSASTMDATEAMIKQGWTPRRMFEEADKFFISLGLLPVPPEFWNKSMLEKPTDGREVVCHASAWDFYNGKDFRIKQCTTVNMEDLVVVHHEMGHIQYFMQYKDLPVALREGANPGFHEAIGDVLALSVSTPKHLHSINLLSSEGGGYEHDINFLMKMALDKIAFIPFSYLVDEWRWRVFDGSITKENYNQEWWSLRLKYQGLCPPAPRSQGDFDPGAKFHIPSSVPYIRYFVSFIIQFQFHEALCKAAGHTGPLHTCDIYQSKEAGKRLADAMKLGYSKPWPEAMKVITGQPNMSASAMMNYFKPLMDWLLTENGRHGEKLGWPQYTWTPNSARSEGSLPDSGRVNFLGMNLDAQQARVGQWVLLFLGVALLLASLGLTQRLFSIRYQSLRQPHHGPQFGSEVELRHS
Experiment: in vitro ACE inhibition, hydrolysis of hippuryl-histidyl-leucine (HHL)
Type: biochemical
Conditions: substrate HHL; test compound studied at concentrations between 10^-9 to 10^-4 M
Experimental: A number of in vitro and in vivo models are available to assess the biological activity of ACE inhibitors. (cf E. W. Petrillo, Jr. and M. A. Ondetti, Medical Res. Rev. 2, 1 (1982) and references therein). A particularly useful in vitro test employs a preparation of ACE from rabbit lung (either crude or purified) and uses the synthetic substrate (hippuryl-histidyl-leucine) as substrate (D. W. Cushman and H. S. Cheung, Biochem. Pharmacol., 20, 1637 (1971)). The substances to be tested are assessed for their ability to block the cleavage of the substrate and doses which cause 50% inhibition of the hydrolysis of the substrate are determined (ID50). In this and other studies, the incorporation of a literature standard (usually captopril) is helpful.
The ACE inhibiting ability of the dipeptides of formula A is assessed in the in vitro model employing a preparation of ACE from crude rabbit lung acetone powder. Hippuryl-histidyl-leucine (HHL) is used as synthetic substrate to be cleaved (hydrolysed) by ACE (D. W. Cushman and H. S. Cheung, Biochem. Pharmacol., 20, 1637 (1971)). The following compounds of formula A, identified by Arabic numerals (referred to above), were assessed for their ability to block the hydrolysis of HHL to the C-terminal dipeptide His-Leu by the ACE preparation.

Row | Structure (SMILES) | ID50 (dose which causes a 50% inhibition of the hydrolysis of HHL) [nM]
1 | CCCC(NC(CCCCNC(=NCC)NCC)C(=O)O)C(=O)N1CCC[C@H]1C(=O)O (stereo partly drawn) [(13), N-[2-(N^G,N^G' -diethyl-L-homoargin-N^α -yl)pentanoyl]-L-proline] | 60
2 | CCCCNC(=NC)NCCCC[C@H](N[C@@H](C)C(=O)N1Cc2ccccc2C[C@H]1C(=O)O)C(=O)O [(3), (S)-N-[(S)-2-[N^G -methyl-N^G' -n-butyl-(S)-homoargin-Nα-yl]propionyl]-THIQ] | 220
3 | CCN=C(NCC)NCCCC[C@H](N[C@@H](CC)C(=O)N1Cc2ccccc2C[C@H]1C(=O)O)C(=O)O [(4), (S)-N-[(S)-2-[N^G,N^G' -diethyl-(S)-homoargin-Nα-yl]butanoyl]-THIQ] | 65
4 | CCCCNC(=NC)NCCCCC(NC(C)C(=O)N1CCC[C@H]1C(=O)O)C(=O)O (stereo partly drawn) [(11), N-[2-(N^G -methyl-N^G' -n-butyl-L-homoargin-N^α -yl)propionyl]-L-proline] | 280
5 | CCN=C(NCC)NCCCCC(NC(CC)C(=O)N1CCC[C@H]1C(=O)O)C(=O)O (stereo partly drawn) [(12), N-[2-(N^G,N^G' -diethyl-L-homoargin-N^α -yl)butanoyl]-L-proline] | 230
6 | CCN=C(NCC)NCCCC[C@H](N[C@@H](C)C(=O)N1c2ccccc2C[C@H]1C(=O)O)C(=O)O [(10), (S)-N-[(S)-2-[N^G,N^G' -diethyl-(S)-homoargin-Nα-yl]propanoyl]-2-carboxy-2,3-dihydroindole] | 180
7 | C[C@H](N[C@@H](CCCCNC(=NCC(F)(F)F)NCC(F)(F)F)C(=O)O)C(=O)N1Cc2ccccc2C[C@H]1C(=O)O [(2), (S)-N-[(S)-2-[N^G,N^G' -bis(2,2,2-trifluoroethyl)-(S)-homoargin-Nα-yl]propionyl]-THIQ] | 90
8 | CCN=C(NCC)NCCCC[C@H](N[C@@H](C)C(=O)N1Cc2ccccc2C[C@H]1C(=O)O)C(=O)O [(1), (S)-N-[(S)-2-[N^G,N^G' -diethyl-(S)-homoargin-Nα-yl]propionyl]-THIQ] | 60
